Counter-ions that a name gives are not always drawn. Bridge positions count the residues as written; N and C are the ends. Square brackets hold non-standard residues; d marks the D form. Peptide text beside a SMILES is read from it. * marks the point of attachment. X1 = CC[C@H](C)CCCCC(=O)*; Dab = NCC[C@H](N)C(=O)O
Key:
[1] = tested on: carbapenem-resistant P. aeruginosa (CRPA); assay: Bacterial load in lung of infected mice; format: in vivo, C57BL/6 mice; settings: mice infected intratracheally, drug iv 1.5 h after infection, sacrificed 48 h later, lung homogenate 10-fold diluted, 48 h incubation
Procedure: (§1) Male C57BL/6 mice (21 to 23 g) were divided into three groups (namely control, free colistin, and CCM-CL), with 10 mice in each group. All animals were administered 150 mg/kg of cyclophosphamide intraperitoneally, 3 days and 1 day before infection. At day 0 (defined as infection day), mice were infected with 0.04 mL of a drug-resistant strain P. aeruginosa 048431, which was administered intratracheally at a concentration of 5 × 10^5 CFUs/mL. Ninety minutes later, water, free colistin, and CCM-CL were administered intravenously at 8 mg/kg. On day 2, free colistin and CCM-CL at a dose of 8 mg/kg and water were administered again (Figure 5).
This study was conducted and administered along with the survival assay. The pulmonary burden of P. aeruginosa was determined on the third day. Mice were sacrificed with carbon dioxide; then, their lungs were removed aseptically and rinsed with sterile saline. The lungs were treated with a homogenizer and then subjected to a 10-fold series of dilutions; 0.05 mL of each dilution was plated on dextrose agar. The plates were then incubated at 37 °C for 2 days, and the colonies were then enumerated.

[2] = tested on: male C57BL/6 mice; assay: No observed adverse effect level (NOAEL), up-and-down procedure; format: in vivo; settings: for No. of Survival/Total Mice: 6 mg/mL, 8-week-old male C57BL/6 mice
Procedure: In the up-and-down method, animals were dosed one at a time. If an animal survived, the dose for the next animal increased; if it died, the next dose decreased. This test determined the safety of a single dose for intravenous bolus injection and 3 min infusion.

[3] = tested on: Acinetobacter baumannii 10591; assay: MIC by broth microdilution; format: cell-based; settings: Mueller-Hinton broth, 5 x 10^5 CFUs/mL, 37 °C, 24 h
Procedure: (§2) Antimicrobial effects of the colistin and CCM-CL against P. aeruginosa ATCC 27853, A. baumannii BCRC 10591, and P. aeruginosa 048,431 were determined by the minimal inhibitory concentration (MIC). P. aeruginosa ATCC […] and A. baumannii BCRC 10591 are standard strains; they were purchased from the American Type Culture Collection and Biosource Collection and Research Center, Taiwan, respectively. P. aeruginosa 048431 is a carbapenem-resistant blood isolate from a patient with lung adenocarcinoma and ventilator-associated pneumonia. The broth microdilution method determined the MICs for the study drugs. Briefly, serial doubling dilutions of antimicrobial agents were made in a Mueller–Hinton broth. The final bacterial suspension in the mixture was adjusted to 5 × 10^5 CFUs/mL, and the exact colony count was measured by plating 10-fold serially diluted specimens of 100 μL aliquots on drug-free nutrient agar (Difco Laboratories, Franklin, NJ, USA). The mixtures of bacteria and drugs were incubated at 37 °C for 24 h. The MIC is defined as the lowest antibiotic concentration preventing visible growth in broth.

[4] = tested on: Pseudomonas aeruginosa 048431 (carbapenem-resistant blood isolate); assay: MIC by broth microdilution; format: cell-based; settings: Mueller-Hinton broth, 5 x 10^5 CFUs/mL, 37 °C, 24 h
Procedure: as §2

[5] = tested on: Pseudomonas aeruginosa ATCC27853; assay: MIC by broth microdilution; format: cell-based; settings: Mueller-Hinton broth, 5 x 10^5 CFUs/mL, 37 °C, 24 h
Procedure: as §2

[6] = tested on: carbapenem-resistant P. aeruginosa 048431 pneumonia; assay: Survival study in the neutropenic murine pneumonia model; format: in vivo; settings: neutropenic (cyclophosphamide) male C57BL/6 mice, intratracheal P. aeruginosa 048431, 8 mg/kg iv 90 min after infection and again on day 2, n = 10
Procedure: as §1
Data were analyzed using WinSTATt (Microsoft Excel). Overall survival probabilities […] were estimated using the Kaplan–Meier method. The log-rank test (Cox–Mantel) was used to test significant differences in survival among groups.

[7] = Pharmacokinetic study, plasma colistin after intravenous dosing; format: in vivo, Sprague-Dawley (SD) rats; settings: male SD rats, iv 3 mg/kg for 15 min, LC-MS; for t1/2, elimination half-time T1/2(β): 3 rats per group, colistin one-compartment, CCM-CL two-compartment model (PKsolver), 3 mg/kg
Procedure: Chromatographic separation was performed by the ACQUITY UHPLC system (Waters Corporation, Milford, MA, USA) on a Phenomenex Kinetex EVO C18 column (150 mm × 4.6 mm; I.D. 5 μm) maintained at 25 ± 5 °C. The mobile phase consisted of solution ‘A’ (acetonitrile) and solution ‘B’ (0.05% trifluoroacetic acid in water, v/v). The percentage was initially set at 10% and increased to 60% within 5 min, using a flow rate of 0.5 mL/min. […] The total run time was 9 min, and the injection volume was 20 μL. We set the autosampler at 10 ± 5 °C. The ultra-performance liquid chromatography (UHPLC) was interfaced to an ACQUITY QDa detector (Waters Corporation) with electrospray ionization […] in positive mode used for detection. The optimized tuning parameters were as follows: capillary voltage, 0.3 kV; cone voltage, 8 V; and probe temperature, 600 °C. The mass transitions were m/z 585.5 for colistin A, 578.5 for colistin B, and 602.8 for polymyxin B (an internal standard).
Sample pre-treatment: Five microliters of polymyxin B (Toronto Research Chemicals, CAS number 1405-20-5) dissolved in water (420 μg/mL, an internal standard) was added to 100 μL rat plasma sample. After that, 400 μL of acetonitrile and 10% trichloroacetic acid mixed solution (50/50, v/v) was added. The samples were vortex-mixed for 1 min and then centrifuged at 12,000 rpm for 10 min. Following centrifugation, the supernatant was collected and filtered with 0.45 μm PVDF membrane filter for analysis.
The day before the pharmacokinetic study, the right carotid artery of each rat was cannulated for collection of blood samples. Following surgery, rats were individually housed in metabolic cages and were given 24 h for recovery. […] Blood plasma was collected at min 0, 15, 60, 120, and 180 following drug infusion. All blood samples were collected and transferred into an EDTA-K2 tube, and were then centrifuged at 1500 rcf for 10 min at 4 °C. The experiments were repeated three times. After centrifugation, the plasma was collected and examined by LC-MS. In previous pharmacokinetic studies, colistin is best described by the one-compartment linear model. […] CMS is hydrolyzed to form partially sulfomethylated derivatives as well as colistin sulfate, the active form of the drug. Like CMS, colistin is released from CCM-CL once ferrous ions in the CCM complex are captured by transferrin [34]. Therefore, we estimated the pharmacokinetics for colistin using the one-compartment model and CCM-CL using the two-compartment model. The data were analyzed using PKsolver (Microsoft Excel).

In the case of `CC[C@H](C)CCCCC(=O)N[C@@H](CCN)C(=O)N[C@H](C(=O)N[C@@H](CCN)C(=O)N[C@H]1CCNC(=O)[C@H]([C@@H](C)O)NC(=O)[C@H](CCN)NC(=O)[C@H](CCN)NC(=O)[C@H](CC(C)C)NC(=O)[C@@H](CC(C)C)NC(=O)[C@H](CCN)NC1=O)[C@@H](C)O` [Colistin, Colistin sulfate] (X1-[Dab]T[Dab][Dab][Dab][dL]L[Dab][Dab]T; lactam 4-C), the “Colony counts of CRPA isolated from the lungs” value [1] is reported as 60 CFU, the “No. of Survival/Total Mice” value ([2]; intravenous bolus injection, single dose 8 mg/kg) is reported as 5/5 and the “No. of Survival/Total Mice” value ([2]; intravenous bolus injection, single dose 13 mg/kg) is reported as 0/1. The “No. of Survival/Total Mice” value ([2]; intravenous bolus injection, single dose 20 mg/kg) was 1/3, the “Safe dosage (NOAEL), slow infusion” value ([2]; single 3 min intravenous infusion, male C57BL/6 mice) was 8 mg/kg and the “Safe (NOAEL) dose, bolus” value ([2]; single intravenous bolus injection, male C57BL/6 mice) was 13 mg/kg. The “No. of Survival/Total Mice” value ([2]; slow infusion (3 min), single dose 13 mg/kg) was 0/1, the Minimal inhibitory concentration [3] was 2 and the Minimal inhibitory concentration [4] was 0.5. For the same molecule, the Minimal inhibitory concentration [5] was 0.5, the 14-day survival rate [6] was 30% and the “AUC0–t” value ([7]; plasma sampled to 180 min) was 239.31 mg·min/L. For the same molecule, the “AUC0–inf” value ([7]; plasma) was 239.32 mg·min/L, the Cmax ([7]; plasma) was 9030 ng/mL and the “t1/2, elimination half-time T1/2(β)” value ([7]; plasma) was 12.46 min. The “t1/2, elimination half-time T1/2(β)” value ([7]; plasma, listed as free colistin) was 102.23 min.
